# Reference: ChEMBL document CHEMBL2016544, “Low brain penetrant CB1 receptor agonists for the treatment of neuropathic pain” (Bioorg Med Chem Lett, 2012)
# Assays:
# Cannabinoid receptor 1 [1] = target: T1, Cannabinoid receptor 1 (Homo sapiens, UniProt P21554); experiment: Agonist activity at CB1 receptor; type: functional
# [2] = Oral bioavailability in rat; type: ADME, organism-based; conditions: in vivo
# Rattus norvegicus [3] = experiment: Analgesic activity in sc dosed rat Chung von Frey model of neuropathic pain assessed as anti-allodynic effect against mechanical stimulus; type: functional
# Rattus norvegicus [4] = experiment: Toxicity in sc dosed rat assessed as catalepsy by ring immobility test; type: organism-based; conditions: in vivo
# Rattus norvegicus [5] = experiment: Ratio of MED for toxicity in sc dosed rat assessed as catalepsy to ED50 for anti-allodynic activity in sc dosed rat Chung von Frey model of neuropathic pain; type: functional
# [6] = Ratio of drug level in brain to plasma in mouse; type: ADME, organism-based; conditions: read-out: BPR
# [7] = Intrinsic clearance in rat liver microsomes; type: ADME, Microsome; conditions: read-out: CLH
# [8] = Intrinsic clearance in human liver microsomes; type: ADME, Microsome; conditions: read-out: CLH
# Cannabinoid receptor 1 [9] = target: T1, Cannabinoid receptor 1; experiment: Displacement of [3H]CP 55,940 from human CB1 receptor expressed in insect sf9 membranes; type: cell membranes
# Cannabinoid receptor 2 = Cannabinoid receptor 2 (Homo sapiens, UniProt P34972); experiment: Displacement of [3H]CP 55,940 from human CB2 receptor expressed in insect sf9 membranes; type: cell membranes
# Sequence of Cannabinoid receptor 2 (P34972 whole entry): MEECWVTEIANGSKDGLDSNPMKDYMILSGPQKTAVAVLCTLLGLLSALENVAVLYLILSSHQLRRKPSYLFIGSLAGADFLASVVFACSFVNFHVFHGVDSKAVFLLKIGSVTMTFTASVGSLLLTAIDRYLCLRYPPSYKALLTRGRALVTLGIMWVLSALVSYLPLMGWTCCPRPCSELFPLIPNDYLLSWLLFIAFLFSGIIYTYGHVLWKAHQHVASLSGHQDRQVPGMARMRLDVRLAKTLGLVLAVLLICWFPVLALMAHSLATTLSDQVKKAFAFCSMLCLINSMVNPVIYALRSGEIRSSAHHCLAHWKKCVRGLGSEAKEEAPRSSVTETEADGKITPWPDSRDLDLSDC
# T1 sequence (P21554 whole entry): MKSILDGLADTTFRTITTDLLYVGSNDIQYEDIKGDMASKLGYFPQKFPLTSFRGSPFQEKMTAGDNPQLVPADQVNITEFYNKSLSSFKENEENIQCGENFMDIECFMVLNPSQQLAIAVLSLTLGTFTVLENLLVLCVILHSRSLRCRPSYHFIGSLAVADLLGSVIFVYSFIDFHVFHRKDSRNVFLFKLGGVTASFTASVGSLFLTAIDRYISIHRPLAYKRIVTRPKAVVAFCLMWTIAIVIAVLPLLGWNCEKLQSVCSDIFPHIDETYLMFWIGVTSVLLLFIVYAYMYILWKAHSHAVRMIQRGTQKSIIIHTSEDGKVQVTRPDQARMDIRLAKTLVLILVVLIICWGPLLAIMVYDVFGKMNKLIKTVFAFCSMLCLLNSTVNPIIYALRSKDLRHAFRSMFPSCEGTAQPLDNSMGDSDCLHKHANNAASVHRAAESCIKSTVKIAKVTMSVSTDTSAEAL
Structure (SMILES),EC50 (Cannabinoid receptor 1 [1]),Kp [6],microsomal CLint [7],microsomal CLint [8],other results
COc1cccc2c(-c3noc(CN(C)CC(N)=O)n3)cn(CC3CCOCC3)c12,2510 nM,–,–,–,–
COc1cccc2c(-c3nsc(CN(C)CC(N)=O)n3)cn(CC3CCOCC3)c12,1260 nM,–,–,–,–
Cc1c(C(=O)c2cccc3ccccc23)c2cccc3c2n1[C@H](CN1CCOCC1)CO3 [WIN-552122],–,1.3,–,–,bioavailability [2]: 0%; ED50 (Rattus norvegicus [3]): 1.6 µmol/kg; MED (Rattus norvegicus [4]): 5.7 µmol/kg; Ratio (Rattus norvegicus [5]): 3.7
O=C(NCCO)C1CCN(Cc2nc(-c3cn(CC4CCS(=O)(=O)CC4)c4c(Cl)cccc34)no2)CC1,1000 nM,–,< 12 µL/min/mg,< 12 µL/min/mg,–
CN(CC(N)=O)Cc1nc(-c2cn(CC3CCOCC3)c3c(Cl)cccc23)no1.Cl,–,0.9,43 µL/min/mg,36 µL/min/mg,–
COc1cccc2c(-c3nsc(CN4CCC(C(=O)NCCO)CC4)n3)cn(CC3CCOCC3)c12,31.6 nM,–,33 µL/min/mg,19 µL/min/mg,–
CN(CC(N)=O)Cc1nc(-c2cn(CC3CCOCC3)c3c(Cl)cccc23)ns1,631 nM,–,–,–,–
O=C(NCCO)C1CCN(Cc2nc(-c3cn(CC4CCOCC4)c4c(Cl)cccc34)no2)CC1,–,0.03,18 µL/min/mg,16 µL/min/mg,bioavailability [2]: 8%; Ki (Cannabinoid receptor 1 [9]): 3.98 nM; Ki (Cannabinoid receptor 2): 20 nM
NC(=O)CN1CCN(Cc2nc(-c3cn(CC4CCOCC4)c4c(Cl)cccc34)ns2)CC1,63.1 nM,–,23 µL/min/mg,23 µL/min/mg,–
